{"source": "patent US20230201262A1", "about": "“MYELOMA-SPECIFIC IMMUNITY REQUIRES THE DIFFERENTIATION OF STEM-LIKE MEMORY T CELLS IN THE BONE MARROW” (Fred Hutchinson Cancer Center, priority 2021, published 2023)", "key": {"Vk*MYC myeloma": {"system": "Vk*MYC myeloma", "format": "in vivo", "text": "To achieve this, a system of allogeneic BMT was developed where C57B⅙ recipients are transplanted with BM and T cell grafts from minor MHC (major histocompatibility complex)-mismatched C3H.SW donors (alloBMT) or syngeneic C57B⅙ donors (synBMT). A green fluorescent protein (GFP)-expressing MLL-AF9-driven leukemia that allows for monitoring of tumor cells in peripheral blood and Vk*MYC myeloma that secretes immunoglobulin G (IgG), which can be monitored by serum protein electrophoresis as an M-band (albumin/gamma ratio) that is a hallmark of clinical disease, were utilized.\n(§1) Stem cell transplantation: Recipient mice were intravenously injected with Vk12653, which originated from Vk*MYC transgenic mice, 2 weeks before BMT (1 × 10^6 CD138^+CD19neg cells; MM-bearing mice) or with an MLL-AF9-driven AML (MLL-AF9; 0.1 × 10^6 GFP^+) or BCR-ABL-NUP98-HOXA9 (1.0 × 10^6 GFP^+) on D0 (AML-bearing mice). Recipients were transplanted with BM and T cell grafts (doses detailed in the figure legends) administered via tail vein injection the day after lethal irradiation (1000 cGy for C57B⅙ and 1100 cGy for B62DF1, 137Cs source). Every 2 weeks, serum samples were collected from MMbearing recipients, and M-band was quantified using a Sebia Hydrasys serum protein electrophoresis system ([…] 2 Scan). Leukemia cell number in blood was calculated weekly using flow cytometry to quantify GFP^+ cells in blood. Recipients were monitored daily, up to 120 days after BMT, and euthanized when hindlimb paralysis occurred or clinical scores reached ≥6. In competing risk analyses, deaths were attributed to myeloma if the M-band was above 0.28, a defined relapse threshold. In the leukemia models, leukemic death was defined by a white blood cell count above 50 × 10^6/ml or a GFP^+ leukemia frequency above 50% in blood or BM. For some experiments, mice were treated with 100 µg of anti-TIGIT monoclonal antibody (mAb; 4B1, Bristol Myers Squibb) or mouse IgG2a (anti-KLH) twice a week for 4 weeks from D+14 postalloBMT. For other experiments, mice were treated with 100 µg of Fc-dead anti-TIGIT mAb (D265A, Bristol Myers Squibb) or mouse IgG1 (anti-KLH.1) twice a week for 6 weeks from D+21 postalloBMT. Cyclophosphamide (Fisher Scientific; 99.5%, MP Biomedicals) was intraperitoneally administered at 50 mg/kg on D+3 and D+4 after alloBMT (PT-Cy). […] DR-18 was supplied by Simcha Therapeutics (New Haven, CT).\n(§2) Cell preparation for flow cytometry: Recipient mice were euthanized 2 to 8 weeks after transplant, and cells from BM or blood were harvested. For BM aspirates, mice were anesthetized and treated with a local analgesic (0.5% lidocaine) followed by injection of 30 µl of phosphate-buffered saline (PBS) into the femur to allow up to 10 µl of marrow to be aspirated for fluorescence- activated cell sorting (FACS) analysis. For surface marker phenotyping, isolated cells were incubated with Fc-block before staining with fluorescently tagged antibodies (listed in Table 1), on ice for 30 min. For intracellular staining, cells were surface labeled, fixed, and permeabilized (eBioscience, Foxp3 Transcription Factor Staining Buffer Kit) before intracellular staining at room temperature for 60 min. To measure cytokine production, cells were stimulated for 4 hours at 37° C. with PMA (500 ng/ml) and ionomycin (50 ng/ml; Sigma-Aldrich) with brefeldin A (BioLegend). All samples were acquired on a BD LSR Fortessa (BD Biosciences) or BD FACSymphony A3 (BD Biosciences) and analyzed using FlowJo software (v10). t-SNE analysis was performed using the FlowJo plugin with default settings on a concatenated sample with 3000 CD8 T cells per mouse. FlowSOM analysis was performed with 3000 to 4000 CD8 or CD4 T cells per mouse concatenated after downsampling.\nStatistical analysis: Data are presented as means ± SEM, and P < 0.05 was considered significant. Survival curves were plotted using Kaplan-Meier estimates and compared by log-rank (Mantel-Cox) test."}, "T cells in the BM": {"system": "T cells in the BM", "description": "It was next investigated whether it was possible to eliminate highly activated, alloreactive T cells to preserve T cell subsets that could be safely harnessed to improve GVT responses in the BM after alloBMT. […] T cell phenotypes in the BM were first assessed 14 days after transplantation in MM-free mice to generate a dataset that could be broadly interpreted independent of specific tumor induced phenotypes. Single-cell sequencing was performed on sorted T cells from BM with the 10x Genomics Multiome platform to measure concurrent changes in gene expression (RNA sequencing) and chromatin accessibility (ATAC (assay for transposase-accessible chromatin) sequencing).\nas §2\nSingle-cell RNA/ATAC sequencing: Naive C57B⅙ mice were transplanted with C3H.SW grafts and were untreated (alloBMT) or treated with PT-Cy (50 mg/kg) on D+3 and D+4 (PT-Cy). BM was harvested from femurs (four mice pooled per group) at D+14 after alloBMT, and T cells were sort-purified (CD90.2^+CD4^+ and CD90.2^+CD8^+) before nuclei preparation according to the 10x Genomics Multiome protocol. Nuclei (also referred to as cells herein) were captured and libraries were generated according to the manufacturer’s specifications. Libraries were sequenced using Illumina NovaSeq 6000 targeting a depth of 25,000 reads per cell per library.\nSingle-cell RNA/ATAC analysis: Reads were demultiplexed and processed using cellranger-arc v1.0.1 aligning reads to GENCODE vM23/Ensembl98. Peaks were called from each sample’s fragment file (cellranger output) using MACS2 using the parameters “--nomodel --extsize 200 --shift -100.” Quantification of reads in MACS2 peaks were calculated and integrated with cellranger RNA output using Signac. Cells meeting the following criteria (calculated using Signac) were retained for downstream analysis: percent mitochondrial RNA reads <10%; 3 > log10(ATAC counts) < 4.5; 3 > log10(RNA/UMI counts) < 4.5; fraction of reads in peaks >40%; transcription start site (TSS) percentile >75%. RNA/unique molecular identifier (UMI) counts were subject to a variance-stabilized normalization procedure using Seurat’s “glmGamPoi” function before dimensionality reduction using principal components analysis (PCA)."}, "[1]": {"system": "BCR-ABL-NUP98-HOXA9 leukemia", "description": "Recipients were untreated (haploBMT) or administered PT-Cy (50 mg/kg) on D+3 and D+4 (PT-Cy) with or without decoy-resistant IL-18 (PT-Cy + DR-18; 8 µg twice weekly from D+7 to week 5) or CD137 agonist antibody (PT-Cy + αCD137; 100 µg twice weekly from D+7 to week 5).\nIt was next sought to explore the combination of agonist immunotherapy with PT-Cy in a model of haploidentical transplantation (haploBMT), a setting where PT-Cy is a clinical standard of care. In this model, there is a major genetic mismatch between the recipient and the donor whereby lethal GVHD occurs in the absence of any immunosuppressive interventions.\nTo explore the mechanisms of DR-18-driven GVL in a haploBMT setting, donor cells from a triple reporter mouse (FoxP3-RFP × IL-10-GFP × IFN-γ-YFP) were used to measure in vivo cytokine production without restimulation. Phenotyping was performed in mice with low leukemia burden to minimize the effect of tumor cells on T cell number in the BM.\nas §1"}, "[2]": {"conditions": "50 mg/kg D+3 and D+4, vs untreated recipients"}, "[3]": {"conditions": "50 mg/kg D+3 and D+4, D+14, multiome sequencing, vs untreated alloBMT"}, "[4]": {"conditions": "50 mg/kg D+3 and D+4, vs untreated haploBMT"}, "[5]": {"conditions": "21 days after transplantation, vs untreated haploBMT"}, "[6]": {"conditions": "21 days, PT-Cy vs untreated haploBMT"}}, "note": "“Also recorded” adds a separate entry of the source.", "data": [{"smiles": "O=P1(N(CCCl)CCCl)NCCCO1", "note": "(stereo not shown) [PT-Cy, cyclophosphamide]", "values": [{"measurement": "overall survival", "setting": "Vk*MYC myeloma; 50 mg/kg D+3 and D+4, vs untreated alloBMT", "value": "did not significantly reduce overall survival"}, {"measurement": "myeloma burden (M-band) at 4 weeks after alloBMT", "setting": "Vk*MYC myeloma; [2]", "value": "early myeloma cytoreduction with reduced M-bands"}, {"measurement": "myeloma progression (M-band) 8 weeks after alloBMT", "setting": "Vk*MYC myeloma; [2]", "value": "subsequent increase in myeloma progression"}, {"measurement": "CD8+ T cell phenotype in BM, MM-bearing recipients", "setting": "Vk*MYC myeloma; 7 weeks after transplant", "value": "most CD8^+ T cells were DNAM-1-TIGIT^+ with high expression of TOX and TIM-3"}, {"measurement": "total numbers of CD4+ and CD8+ T cells in BM", "setting": "Vk*MYC myeloma; 7 weeks after transplant", "value": "reduction in total numbers of CD4^+ and CD8^+ T cells"}, {"measurement": "total T cell numbers (CD8 and CD4) in BM", "setting": "Vk*MYC myeloma; D+14 (MM-free) and D+21 (MM-bearing) after alloBMT", "value": "concurrently reduced; also recorded: reduces the total number of CD8 and CD4 T cells"}, {"measurement": "chromatin accessibility (gene activity scores) of Il18r1, Il2ra, Il7r in CD8+ and CD4+ T cells", "setting": "T cells in the BM; 50 mg/kg D+3 and D+4, D+14, ATAC", "value": "increased gene activity scores"}, {"measurement": "gene signature expression in BM CD8+ T cells", "setting": "T cells in the BM; [3]", "value": "higher expression of stem-like memory gene signatures"}, {"measurement": "gene signature in BM CD4+ T cells", "setting": "T cells in the BM; [3]", "value": "largely enriched for a TSCM signature"}, {"measurement": "CD8+ T cell phenotype in BM, MM-free recipients", "setting": "T cells in the BM; 7 weeks after transplant", "value": "most CD8^+ T cells were DNAM-1^+TIGIT^- and did not express TOX or TIM-3"}, {"measurement": "CD8+ central memory and terminal effector T cells, MM-free recipients", "setting": "T cells in the BM; 7 weeks after transplant", "value": "increase in CD8^+ central memory (TCM; CD44^+CD62L^+) and a decrease in terminal effector (TEFF; CD44^-CD62L^-) T cells"}, {"measurement": "frequency of alloreactive, exhausted T cells in the BM", "setting": "T cells in the BM; D+14", "value": "reduced the frequency of alloreactive, exhausted T cells"}, {"measurement": "granzyme B production by CD8+ T cells", "setting": "T cells in the BM; D+14, RNA and protein expression", "value": "did not abrogate granzyme B production"}, {"measurement": "CD4+ T cell exhaustion signature in FoxP3- conventional CD4+ T cells", "setting": "T cells in the BM; D+14, flow cytometry", "value": "largely indistinguishable from synBMT recipients"}, {"measurement": "DNAM-1, TIGIT, PD-1 and TOX expression on BM CD8+ T cells", "setting": "T cells in the BM; D+14, flow cytometry, vs alloBMT without PT-Cy", "value": "significantly increased DNAM-1 and reduced TIGIT, PD-1, and TOX expression"}, {"measurement": "incidence of lethal GVHD", "setting": "[1]; [4]", "value": "reduced the incidence of lethal GVHD"}, {"measurement": "relapse-related mortality", "setting": "[1]; [4]", "value": "increased relapse-related mortality"}, {"measurement": "CD8+ T cell numbers in the BM", "setting": "[1]; [5]", "value": "reduced"}, {"measurement": "NK cells in the BM", "setting": "[1]; [5]", "value": "increased"}, {"measurement": "CD4+ IFN-γ production", "setting": "[1]; [6]", "value": "unaffected"}, {"measurement": "frequency of IFN-γ+ CD8+ T cells", "setting": "[1]; [6]", "value": "minimally decreased"}, {"measurement": "overall survival", "setting": "[1]; PT-Cy vs untreated haploBMT", "value": "no difference in overall survival"}]}]}
